Type in all cases: cell-based
One experiment deals with T1, HDAC6 (Homo sapiens, UniProt Q9UBN7).
T1 construct: endogenous in cells; host or cells: U87 glioblastoma cell line
T1 sequence (Q9UBN7 1-1215): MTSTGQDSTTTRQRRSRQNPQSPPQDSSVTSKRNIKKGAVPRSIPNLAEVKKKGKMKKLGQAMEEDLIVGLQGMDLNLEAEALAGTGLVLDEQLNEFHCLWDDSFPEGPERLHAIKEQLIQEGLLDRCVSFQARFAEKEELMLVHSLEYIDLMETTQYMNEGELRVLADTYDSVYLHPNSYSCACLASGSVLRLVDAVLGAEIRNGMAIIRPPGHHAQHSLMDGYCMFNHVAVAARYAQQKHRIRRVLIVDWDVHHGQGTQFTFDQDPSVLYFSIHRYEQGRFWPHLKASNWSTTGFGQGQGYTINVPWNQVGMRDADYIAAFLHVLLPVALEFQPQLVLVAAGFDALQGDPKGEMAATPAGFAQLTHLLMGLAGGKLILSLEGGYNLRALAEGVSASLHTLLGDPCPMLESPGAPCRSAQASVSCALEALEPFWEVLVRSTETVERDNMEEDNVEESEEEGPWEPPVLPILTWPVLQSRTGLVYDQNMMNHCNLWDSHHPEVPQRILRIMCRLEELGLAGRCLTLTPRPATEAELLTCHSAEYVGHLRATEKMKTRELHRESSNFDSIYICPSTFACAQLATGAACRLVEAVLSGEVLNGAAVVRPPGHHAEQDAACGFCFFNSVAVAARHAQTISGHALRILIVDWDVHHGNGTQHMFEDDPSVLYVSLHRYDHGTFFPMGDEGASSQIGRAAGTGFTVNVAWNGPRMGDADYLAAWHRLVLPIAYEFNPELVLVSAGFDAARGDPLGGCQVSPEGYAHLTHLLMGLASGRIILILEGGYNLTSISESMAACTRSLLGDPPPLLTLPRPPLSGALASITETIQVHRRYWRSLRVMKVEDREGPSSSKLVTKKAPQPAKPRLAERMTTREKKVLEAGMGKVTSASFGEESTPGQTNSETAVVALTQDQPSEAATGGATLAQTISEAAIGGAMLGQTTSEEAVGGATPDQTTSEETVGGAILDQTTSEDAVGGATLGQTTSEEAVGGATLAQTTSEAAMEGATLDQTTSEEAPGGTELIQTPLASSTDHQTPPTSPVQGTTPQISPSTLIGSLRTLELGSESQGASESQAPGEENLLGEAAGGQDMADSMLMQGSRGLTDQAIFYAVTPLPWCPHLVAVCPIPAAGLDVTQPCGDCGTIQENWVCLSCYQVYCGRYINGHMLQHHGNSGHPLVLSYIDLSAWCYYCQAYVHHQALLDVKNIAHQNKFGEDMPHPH
Nature of the experiment: Western blot of HDAC6 and acetylated α-tubulin in treated U87 cells. As to conditions: 48 h, effect higher with increasing concentrations. As to the method: Basing on the IC50 values, DDI199, MTP142, MTP156, MTP150, FRB44 and FRB56 were selected for further studies, as they seem to be the most promising compounds (see figure 1). Thus, the capacity of these compounds as HDAC inhibitors was tested. […] For this, specific antibodies against HDAC6 and HDAC1, and acetylated α-tubulin and acetylated histone H3 were used, and β-actin was included as control. Secondary antibodies were horseradish peroxidase (HRP)-linked anti-rabbit and anti-mouse and detection was performed by chemiluminiscence with NOVEX ECL Chemi Substrate.
Background: Immunoblotting shows a protein as a band on a membrane.

The test system of experiment [1] is conventional (U251) and patient-derived (GNS166 and GNS179) cell lines. Nature of the experiment: Immunofluorescence for phosphohistone H3 (proliferation) in additional glioblastoma cell lines. As to conditions: dose-dependent. As to the method: (§1) For this, U87 cells were incubated for 48 h with increasing concentrations of the compounds. After that, cells were incubated with phosphohistone H3 or caspase-3 antibodies for the study of proliferation or apoptosis, respectively. Alexa Fluor 555 IgG anti-mouse and anti-rabbit secondary antibodies were used, and nuclear DNA was stained with DAPI. Pictures were taken with an Eclipse 80i microscope.
(§2) Furthermore, immunofluorescence assays for DDI199 were completed in additional conventional (U251) and patient-derived (GNS166 and GNS179) cell lines.

The next experiment relates to GNS179. The experiment can be described thus: MTT cell viability assay in GNS179. The note with it: GNS179 (patient-derived); MTT assay after 72 h of treatment. The method, then:
(§3) As a first screening, dose-response assays were done in U87 glioblastoma cell line in order to obtain the IC50 values of the different compounds. Cells were seeded at a density of 1.500 cells/well in 96-well plates, incubated overnight and treated with increasing concentrations of the corresponding compounds. After 72 h of treatment, cell viability was determined by MTT assay. For this, MTT was added to the wells and cells were incubated for 3,5 h at 37 °C and 5% CO2. Then, media was removed and DMSO was added to resuspend the formed crystals. Absorbance at 570 nm was measured using a spectrophotometer, and GraphPad Prism software was used to analyze the results and calculate the IC50 values.
(§4) With this aim, additional MTT assays were carried out following the same protocol in other glioblastoma conventional (U251) and patient-derived (GNS179) cell lines. […]
On the technique in general: Tetrazolium assays rely on reduction of a dye to a coloured formazan, in cell work by metabolically active cells.

A further experiment deals with U251. Nature of the experiment: MTT cell viability assay in U251. As to conditions: Homo sapiens, U-251, MTT assay after 72 h of treatment. The method, then: as §3, §4
Experiment [2] concerns conventional (U251) and patient-derived (GNS166 and GNS179) cell lines. The experiment can be described thus: Immunofluorescence for caspase-3 (apoptosis) in additional glioblastoma cell lines. As to conditions: dose-dependent. The method, then: as §1, §2
The test system of experiment [3] is U87 glioblastoma cell line. Nature of the experiment: MTT cell viability dose-response assay in U87. As to conditions: MTT assay after 72 h of treatment. The method, then:
as §3

pIC50: −log10 of the molar value.

As to `COc1ccc2c(ccn2S(=O)(=O)c2cccc(/C=C/C(=O)NO)c2)c1` [MTP142, (E)-N-Hydroxy-3-(3-((5-methoxy-1H-indol-1-yl)sulfonyl)phenyl)acrylamide], the HDAC6 inhibitory capacity result at HDAC6 is “inhibits HDAC6, although this effect is much slighter than that for DDI199”.

Broadly, the pIC50 is the negative decadic logarithm of the IC50, by convention in mol/L. A higher pIC50 goes with a small IC50. Take `C#CCN(Cc1cc2cc(OCCCN3CCCCC3)ccc2n1S(=O)(=O)c1ccccc1)C(=O)CCCCCCC(=O)NO` [DDI199, N1-Hydroxy-N8-((1-(phenylsulfonyl)-5-(3-(piperidin-1-yl)propoxy)-1H-indol-2-yl)methyl)-N8-(prop-2-yn-1-yl)octanediamide]: the “cell proliferation (PH3 positive cells)” value in experiment [1] is “significantly reduces cell proliferation”. Besides, at HDAC6, the HDAC6 inhibitory capacity result is reported as “high HDAC6 inhibitory capacity”. Also, the negative-log IC50 (pIC50) with GNS179 is 5.36; with U251 it was 5.26; in experiment [3], 5.49. In addition, the “apoptosis (caspase-3 positive cells)” value in experiment [2] was “induces apoptosis”.

Source of the values: patent EP4450494A1, “INDOLE DERIVATIVES AS HISTONE DEACETYLASE (HDAC) INHIBITORS FOR THE TREATMENT OF CANCER” (Consejo Superior De Investigaciones Científicas, priority 2023, dated 2024).
